{
  "source": "patent US20200079786A1",
  "about": "“ANALOGS OF […] AS SOLUBLE EPOXIDE HYDROLASE INHIBITORS” (UNIVERSITAT DE BARCELONA, priority 2015, published 2020)",
  "key": {"[1]": {"test": "Determination of cytotoxicity in THLE-2 cells (ATP viability)", "assay_type": "cell-based", "conditions": "human; THLE-2 cells, 72 h exposure, 0-100 μM; read-out: LC50 (μM), cytotoxicity", "experimental": "Cytotoxic effects of assayed compounds were tested using the immortalized human liver cell line THLE-2 (ATCC CRL-2706). Cells were cultured in BEGM medium (Clonetics # CC-4175) containing all the supplements kit except additional EGF and G418. Medium was completed by adding 0.7 μg/mL phosphoethanolamine, 0.5 ng/mL epidermal growth factor, antibiotics (penicillin and streptomycin) and 10% fetal bovine serum (FBS).\nCells were plated in 96-well black microplates at 10,000 cells/well density and were incubated at 37° C. (5% CO2, 95% humidity) for 24 h to allow the cells to adhere and form a monolayer. Test compounds were solubilized in 100% DMSO at a concentration curve way and then diluted with cell culture medium containing 10% DMSO. The final concentrations of the test compounds (1% DMSO) ranged from 0-100 μM in a final volume of 200 μL. Microplates were maintained at 37° C. (5% CO2, 95% humidity) during 3 days. Following this 72 h exposure to test compounds, cell viability in each well was determined by measuring the concentration of cellular adenosine triphosphate (ATP) using the ATP1Step Kit as described by the manufacturer (Perkin-Elmer). In a typical procedure, 50 μL of cell reagent is added to all wells of each test plate followed by incubation for 10 min at room temperature on an orbital shaker. ATP concentration was determined by reading chemical luminescence using the Envision plate reader (PerkinElmer). The percentage of viable cells relative to the non-drug treated controls was determined for each well and LC50 values were calculated as concentrations projected to kill 50% of the cells following a 72 h exposure, an average of minimum two independent replicates."}, "CYP2C19": {"target": "CYP2C19 (Homo sapiens, UniProt P33261)", "sequence (P33261 whole entry)": "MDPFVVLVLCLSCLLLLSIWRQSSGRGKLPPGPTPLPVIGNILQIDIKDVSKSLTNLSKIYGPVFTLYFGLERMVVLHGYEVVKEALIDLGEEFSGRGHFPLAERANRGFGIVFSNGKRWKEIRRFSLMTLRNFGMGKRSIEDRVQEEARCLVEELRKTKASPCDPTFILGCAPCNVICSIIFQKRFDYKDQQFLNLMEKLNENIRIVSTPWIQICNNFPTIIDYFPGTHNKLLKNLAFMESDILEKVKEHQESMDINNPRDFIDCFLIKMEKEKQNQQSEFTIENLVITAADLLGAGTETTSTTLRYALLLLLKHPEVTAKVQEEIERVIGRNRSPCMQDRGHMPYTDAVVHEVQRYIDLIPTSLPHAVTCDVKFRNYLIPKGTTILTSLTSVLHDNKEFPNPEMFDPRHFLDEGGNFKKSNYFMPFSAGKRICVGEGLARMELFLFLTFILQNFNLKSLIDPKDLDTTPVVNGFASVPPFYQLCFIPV", "test": "Inhibition of human cytochrome P450 CYP2C19", "assay_type": "in vitro ADME", "conditions": "human cytochrome P450 enzyme", "excerpt": "The epoxidation of arachidonic acid (AA) by selected cytochrome P450 epoxygenases generates epoxyeicosatrienoic acids (EETs). These EETs show anti-inflammatory, antihypertensive, analgesic, angiogenic, and antiatherosclerotic effects in rodents and humans. sEH converts EETs to their corresponding dihydroxyeicosatrienoic acids (DHETs), whereby the biological effects of EETs are diminished, eliminated, or altered. Among the P450 enzymes, it is known that CYP2C19 and CYP1A2 have the highest formation rate of EETs from AA (cf. A. A. El-Sherbeni et al. “Repurposing resveratrol and fluconazole to modulate human cytrochrome P450-mediated arachidonic acid metabolites”, Molecular Pharmaceutics 2016, vol. 13, pp. 1278-1288). For this reason, a highly desirable aspect of any new sEH inhibitor is selectivity in front of CYP2C19 and CYP1A2."}, "Huh-7 cells": {"test_system": "Huh-7 cells", "test": "Amelioration of palmitate-induced ER stress: ATF3, BiP and CHOP mRNA by real-time PCR", "assay_type": "cell-based", "conditions": "palmitate 0.5 mM + inhibitor 1 μM, 48 h", "experimental": "Huh-7 cells were maintained in a humid atmosphere of 5% CO2 at 37° C. in high glucose (25 mM) Dulbecco's modified Eagle's medium supplemented with 10% heat-inactivated fetal bovine serum, 1% of penicillin/streptomycin (10.000 units/mL of penicillin and 10.000 μg/mL of streptomycin) and 1% of amphotericin B (250 μg/mL).\nHuh-7 cells were serum-starved overnight prior treatment. […] For RNA extraction, cells were pre-treated with the inhibitors (final concentration 1 μM) for 1 hour before treatment with palmitate (final concentration 0.5 mM) and inhibitors (final concentration 1 μM). For each condition, at least 3 replicates were performed. Following 48 hours of incubation, RNA were extracted as described below.\nTotal RNA in hepatocytes was harvested by TRIsure (Bioline) according to the manufacturer's instructions. The extracted RNA was dissolved in RNase-free water and concentrations of total RNA were quantified using a NanoDrop 2000c spectrophotometer (Thermo Scientific). First-stranded cDNA was synthesized from 0.5 μg total RNA (Life Technologies). […] The PCR reaction contained 10 ng of reverse-transcribed RNA, 2× IQ™ SYBRGreen Supermix (BioRad, Barcelona, Spain) and 900 nmol/L concentration of each primer. Optical primer amplification efficiency for each primer set was assessed and a dissociation protocol was carried out to assure a single PCR product. PCR assays were performed on a MiniOpticon™ Real-Time PCR system (BioRad). Thermal cycling conditions were as follows: activation of Taq DNA polymerase at 95° C. for 10 min, followed by 40 cycles of amplification at 95° C. for 15 sec and 60° C. for 1 min. The relative levels of specific mRNA were estimated from the value of the threshold cycle (Ct) of the real-time PCR adjusted by that of a housekeeping gene (GAPDH) through the formula […] (ΔCt=Gene of interest Ct-GAPDH Ct). Cf."}, "sEH in AR42j cells": {"target": "T1, sEH in AR42j cells (Rattus norvegicus, UniProt P80299)", "T1 sequence (P80299 1-554)": "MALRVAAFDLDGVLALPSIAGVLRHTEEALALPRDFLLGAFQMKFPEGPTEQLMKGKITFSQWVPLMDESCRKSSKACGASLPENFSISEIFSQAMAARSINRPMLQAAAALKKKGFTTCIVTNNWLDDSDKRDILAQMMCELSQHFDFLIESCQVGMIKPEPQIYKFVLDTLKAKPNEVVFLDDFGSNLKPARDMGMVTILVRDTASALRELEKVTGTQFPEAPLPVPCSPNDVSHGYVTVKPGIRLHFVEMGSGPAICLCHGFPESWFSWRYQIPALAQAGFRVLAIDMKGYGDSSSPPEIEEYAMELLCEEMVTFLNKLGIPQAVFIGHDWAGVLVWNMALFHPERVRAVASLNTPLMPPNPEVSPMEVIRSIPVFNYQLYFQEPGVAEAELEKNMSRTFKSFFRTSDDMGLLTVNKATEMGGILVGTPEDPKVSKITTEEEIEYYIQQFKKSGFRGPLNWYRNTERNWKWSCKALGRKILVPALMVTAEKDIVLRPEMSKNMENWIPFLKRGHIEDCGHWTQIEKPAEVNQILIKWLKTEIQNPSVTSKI", "test": "In vitro determination of sEH inhibition activity in AR42j cells (cell-based fluorescent assay)", "conditions": "AR-42J, read-out: % Inhn. ± SE (100 μM), sEH inhibition activity in cell culture", "description": "Solutions Preparation: • Assay buffer 1×: add 10 mL of the CBA-Buffer (10×) to 90 mL of distilled water. • Lysis Buffer: add 50 μL of the CBA Digitonin Solution to 10 mL of Buffer Assay 1×. • Substrate Solution: dilute 10 μL of CBA sEH Substrate with 10 mL of Assay Buffer 1×. • Standards: preparation of 7 concentrations of CBA 6-methoxy-2-naphtalaldehyde from 0 until 2 M with Assay Buffer 1×. • sEH Positive Control: Prepare another stock A (1 μg/ml: 1 μL CBA sEH Positive Control+1 mL Assay Buffer 1×). From the already prepared stock A, prepare 250 μL of sEH (10 ng/mL): 2.5 μL sEH stock A+250 μL Assay Buffer 1×). • sEH Inhibitor AUDA: dilute 10 μL CBA sEH Inhibitor with 500 ml Assay Buffer 1×. • Inhibitors dissolved in DMSO at appropriated concentrations.\nSeed cells in a 96-well plate at a density of (2×10^4)-(5×10^4) cells/well in 100 μL of culture medium with or without compounds to be tested. Incubation of the cells in a CO2 incubator at 37° C. for 48 hours. Aspirate the culture medium and add 200 μL of Assay Buffer 1× to each well. Centrifuge the plate at 800 rmp for 5 minutes. Aspirate the supernatant and add 100 μL of Lysis Buffer to each well. Incubate with gentle shaking on an orbital shaker for 30 minutes at room temperature. Centrifuge the plate at 3000 rpm for 20 minutes at 4° C. Transfer 90 μL of the supernatants to the 96-Well Solid Plate (black). Add 10 μL Assay Buffer 1× or 10 μL of the AUDA solution to appropriate wells. For positive control wells, add 100 μL of the 10 ng/mL sEH Positive Control to two wells. Add 200 μL of 6-methoxy-2-Naphthaldehyde Standards to corresponding wells of the black plate. Add 100 μL of the sEH Substrate Solution to each well, except the standards. Incubate the plate at 37° C. for 30 minutes. […] The intensity of fluorescence was used to analyze and calculate inhibition percentages, shown in the Table as average of minimum three independent replicates."}},
  "data": [
    {"smiles": "O=C(N[C@]12CC3C[C@@H](C[C@H](C3)O1)C2)N[C@H]1CC[C@H](Oc2ccc(C(=O)O)cc2)CC1", "note": "[Ig, trans-1-(2-oxaadamantan-1-yl)-3-[4-(4-carboxyphenoxy)cyclohexyl]urea]", "values": [
      {"measurement": "CC50 at 72 h", "setting": "[1]", "result": "> 100", "unit": "µM"},
      {"measurement": "inhibition at 1 µM", "setting": "CYP2C19", "result": "≤ 6", "unit": "%"},
      {"measurement": "Level of CHOP mRNA", "setting": "Huh-7 cells; control (CT) = 100.0, PAL alone 224.5", "result": "147.6 ± 15.9^(##)"},
      {"measurement": "Level of BiP mRNA", "setting": "Huh-7 cells; control (CT) = 100.0, PAL alone 242.9", "result": "174.9 ± 31.4^(#)"},
      {"measurement": "Level of ATF3 mRNA", "setting": "Huh-7 cells; control (CT) = 100.0, PAL alone 585.5", "result": "286.7 ± 59.9^(###)"},
      {"measurement": "inhibition at 100 µM", "setting": "sEH in AR42j cells", "result": "58.3 ± 3.2", "unit": "%"}
    ]}
  ]
}
